The results in this text go back to a melting point compilation (Tetko et al.).

One may read the melting point as the temperature, or range, at which the solid turns liquid.

For the data set the following is noted: a range is the spread between reports.
On to `N#Cc1c[nH]cc1-c1cccc2c1OC(F)(F)O2`, for which the melting point stood at 199 °C.

With `NC(=O)c1ccc([N+](=O)[O-])cc1Cl`, the melting point lay within 170 to 172 °C. As for `c1ccc2ncncc2c1`, the figure is 47 to 48 °C. Then `COc1cccc(C(=O)NN)c1`, with 92 to 94 °C.

Consider `CC(N)(CO)CO`, for which the melting point fell in the range of 110 to 111 °C. Then `O=[N+]([O-])c1ccc(Oc2ccc(C(F)(F)F)cc2[N+](=O)[O-])cc1`, with 90 to 94 °C; and `CC(=O)c1cc(C)ccc1O`, with 47 to 50 °C; and `[O-][N+](=Nc1ccccc1)c1ccccc1`, with 35 to 36 °C.

As for `CC(C)(C)c1ccc(O)c(C(C)(C)C)c1`, the melting point was in the range of 54.5 to 56.5 °C.

For the compound `Cc1ccccc1-c1ccccc1`, the melting point is -0.2 to 0 °C.

For `Oc1ccc2[nH]ccc2c1`, the melting point was 108 to 109 °C.

In turn, `C=C=C(C)C` showed a melting point of -114 °C. As for `CCCCCCCCCCCCCCCCCCCCCCO`, the figure is 70 to 72.5 °C.

In the case of `CCOc1ccc(C=O)cc1`, the melting point was in the range of 13.5 to 14 °C. As for `O=C(O)COc1ccccc1`, the figure is 98.5 to 100 °C; as for `Oc1ccc(C(c2ccc(O)cc2)(C(F)(F)F)C(F)(F)F)cc1`, 160 to 162 °C; as for `c1ccc(-c2cc3ccccc3[nH]2)cc1`, 190 °C.

On to `CCOC(=O)c1cccc([N+](=O)[O-])c1`, for which the melting point lay in the range of 42 to 47 °C. For the compound `CCCCC(C)CCCC`, the melting point was -88 to -87.7 °C. As for `CC(C)CCCC(C)C1CCC2C3CC(O)C4(O)CC(O)CCC4(C)C3CCC12C` (stereo not drawn), the figure is 237 to 238 °C. The compound `O=Cc1cccc([N+](=O)[O-])c1` gave a melting point of 58 to 59 °C. Then `COc1cc(C(C)=O)ccc1O`, with 114 to 115 °C; and `C=C(C)OC(C)=O`, with -93 to -92.9 °C. `C=CCC(=O)O` showed a melting point of -39 to -35 °C. As for `COc1cccc(C#N)c1OC`, the figure is 44.5 to 46 °C; as for `COc1cc(OC)c2ccc(=O)oc2c1`, 148 to 149 °C. `CCCCNC(=O)NS(=O)(=O)c1ccc(C)cc1` showed a melting point of 128 to 129 °C. Then `O=P(O)(O)CP(=O)(O)O`, with 200 to 203 °C. Take `Nc1ccccc1I`: the melting point lay within 55 to 58 °C.

As to `CCCCCCCC(=O)O`, the melting point was 15.8 to 17 °C. Regarding `CC(C)(C)c1cc(C(=O)O)cc(C(C)(C)C)c1O`, the melting point was 208 °C. Then `ClC/C=C/CCl`, with 2 to 3.5 °C; and `O=C(O)C1CSCN1` (stereo not drawn), with 195 to 196 °C. As for `Nc1ccc(Cl)cc1`, the figure is 70 to 72.5 °C. With `O=C1c2ccccc2-c2cccc3cccc1c23`, the melting point was 170 to 173 °C. Then `COc1ccc(Br)cc1`, with 10 to 13.5 °C; and `CCCCCCCCC#N`, with -34.2 to -34 °C; and `N#Cc1c(Cl)cccc1Cl`, with 143 to 145 °C. Then `Cc1cc(Cl)nc(Cl)c1C#N`, with 110 to 113 °C; and `C=CCC`, with -185 °C. As for `OCCCO`, the figure is -27 to -26 °C. The compound `C=CCc1ccccc1OCC(O)CNC(C)C` (stereo not drawn) gave a melting point of 108 to 109 °C. Then `CCCCCCCCCCI`, with -16.3 to -16 °C; and `CCC(Br)CBr` (stereo not drawn), with -65.4 to -65 °C. Then `Nc1ccncc1`, with 158 to 159 °C. On to `COC(N)=O`, for which the melting point was in the range of 54 to 55 °C. As for `OCc1ccc2c(c1)OCO2`, the figure is 53 to 58 °C.

As for `Cc1ccc2cccc([N+](=O)[O-])c2n1`, the melting point was 138 to 140 °C. As for `O=C1CCCc2ccccc21`, the figure is 7 to 8 °C; as for `O=C(c1ccccc1)c1ccc(O)cc1O`, 144 to 146 °C; as for `ClC(Cl)(Cl)Cl`, -23 to -22.9 °C. As to `O=C(O)C(c1ccccc1)c1ccccc1`, the melting point is 146 to 147 °C. As for `ClC(Cl)=C(Cl)C(Cl)(Cl)Cl`, the figure is -73 to -72.9 °C.

`Nc1ccc(Br)cc1Br` displayed a melting point of 78 to 80 °C. Compound `C=C(C)Cl` showed a melting point of -138 to -137 °C.

In the case of `Cc1cc(Br)c(C)cc1Br`, the melting point fell in the range of 73 to 74 °C.

In the case of `CC(S)C(=O)O` (stereo not drawn), the melting point lay in the range of 11 to 12 °C. Then `N#Cc1cc([N+](=O)[O-])c(Cl)c([N+](=O)[O-])c1`, with 141 °C. Then `CC(C)(C)C1CCCCC1`, with -41.2 to -41 °C; and `CC1=CC(=O)C=C(C)C1=O`, with 70 to 72.5 °C; and `Cc1cccnc1N`, with 31 to 33.5 °C. As for `c1ccc2c(c1)-c1cccc3c1c-2cc1ccccc13`, the figure is 164 to 168 °C. Regarding `CC(F)(F)Cl`, the melting point was -131 °C. Then `O=C(O)c1ccco1`, with 130 to 134 °C; and `O=C(O)CCBr`, with 60 to 62.5 °C. As for `Brc1cc2ccccc2c2ccccc12`, the figure is 64 to 64.5 °C; as for `ClCBr`, -88 to -87.9 °C; as for `O=C1C(O)=C(Cl)C(=O)C(O)=C1Cl`, 283 to 284 °C.

With `CC(C)C#N`, the melting point was -72 to -71.5 °C. In turn, `c1ccc2ocnc2c1` showed a melting point of 30 to 31 °C.

`CCCCCCCC(=O)OCC` yielded a melting point of -47 to -43.1 °C. Then `COc1ccccc1C=O`, with 37 to 38 °C.

Compound `C=Cc1ccc2ccccc2c1` showed a melting point of 65 to 66 °C.

`CCCC1CCCC1` gave a melting point of -117 °C. On to `CC12CCC(=O)C=C1CCC1C2CCC2(C)C(C(=O)CO)CCC12` (stereo not drawn), for which the melting point came out at 142 °C.

Regarding `Nc1ccc(F)cc1F`, the melting point was -8 to -7.5 °C. With `O=C1CCC(=O)N1Cl`, the melting point is 148 to 150 °C. Take `O=C(Oc1ccccc1)Oc1ccccc1`: the melting point lay within 79 to 83 °C. Regarding `CCCCCCCC`, the melting point was -57 to -56.8 °C. Consider `O=C(O)c1ccc(O)cc1O`, for which the melting point lay within 225 to 226 °C.

Regarding `OCc1ccc(Cl)cc1Cl`, the melting point lay within 59 to 59.5 °C. For the compound `CCC(C)(C)O`, the melting point is -12 to -8 °C. The compound `CC1=C(C)CCCC1` had a melting point of -84.1 to -84 °C. Then `Cc1cc(C)c(C)c(CCl)c1C`, with 69.5 to 70.5 °C; and `CCCCCCCCC#CCCCCCCCC(=O)O`, with 45 to 48 °C.

`CC(C)CC(C)C` gave a melting point of -123 to -119 °C. Then `Cn1c(=O)c2c(ncn2C)n(C)c1=O`, with 235 to 238 °C; and `C=C(C)C(C)CC` (stereo not drawn), with -134 °C; and `O=C(c1ccc(F)cc1)c1ccc(F)cc1`, with 104 to 108 °C. As for `O=C1C(=O)c2cccc3cccc1c23`, the figure is 258 to 261 °C; as for `Fc1cc(F)c(F)cc1F`, 4 to 4.5 °C; as for `Brc1ccccc1I`, 9.5 to 10 °C. As for `COc1ccccc1C(=O)c1ccccc1`, the figure is 37 to 41 °C; as for `CCCCSCCCC`, -80 to -79.7 °C; as for `O=C(O)c1cccs1`, 128 to 130 °C.

Compound `BrCCCOc1ccccc1` returned a melting point of 10 to 10.7 °C.

In the case of `CCCCOC(=O)CCCCCCCCC(=O)OCCCC`, the melting point is -11 to -10 °C. As for `Nc1ccccc1Nc1ccccc1`, the melting point lay within 79 to 79.5 °C. As for `CCC1CCC1`, the figure is -143 °C; as for `CCC(C)=O`, -87 to -86 °C; as for `c1ccc2c(c1)Oc1ccccc1S2`, 57 to 59.5 °C. Then `O=[N+]([O-])c1cccc(O)c1`, with 94 to 98 °C. As for `CC1CNCC(C)O1` (stereo not drawn), the figure is -88 to -85 °C; as for `CCc1cc(C)ccc1C`, -54 to -53.7 °C. `COc1ccc(-c2cc(=O)c3c(O)c(OC)c(O)cc3o2)cc1`: the melting point was 221 to 225 °C.

The compound `CC(C)(C)c1ccc(C(O)CCCN2CCC(C(O)(c3ccccc3)c3ccccc3)CC2)cc1` (stereo not drawn) came in with a melting point of 147 to 148 °C. As for `COP(=S)(OC)Oc1ccc([N+](=O)[O-])cc1`, the figure is 35.5 to 36 °C. As to `O=C(CCl)CCl`, the melting point was 44 to 45 °C. Then `Oc1cccc2cccnc12`, with 74 to 76 °C. Then `Cc1cc(O)ccc1Cl`, with 66 to 67 °C. Then `O=c1c2ccccc2oc2ccccc12`, with 175 to 176 °C; and `O=[N+]([O-])c1ccc(F)cc1O`, with 33 to 36 °C; and `O=C(O)CCCCCCC(=O)O`, with 143 to 144 °C. In turn, `O=C1c2ccccc2C(=O)N1CCCBr` had a melting point of 74 to 75 °C. Regarding `Cc1ccnc2ccccc12`, the melting point fell in the range of 9.5 to 10 °C. Then `Oc1cccc(O)c1`, with 110 to 111 °C. `O=Cc1ccc(C(F)(F)F)cc1`: the melting point lay within 1.5 to 2 °C.

`CC[N+](=O)[O-]` gave a melting point of -89.5 to -89 °C. Then `O=C1OCc2ccccc21`, with 74 to 75 °C; and `FC(F)F`, with -160 to -155 °C; and `c1ccc(C2CO2)cc1` (stereo not drawn), with -37 to -35.6 °C.

With `COC(=O)c1c(Cl)c(Cl)c(C(=O)OC)c(Cl)c1Cl`, the melting point was in the range of 155 to 157 °C. As for `C=CCn1c(=O)n(CC=C)c(=O)n(CC=C)c1=O`, the figure is 20.5 to 24 °C; as for `CN(C)c1cccc([N+](=O)[O-])c1`, 59 to 60.5 °C.

Turning to `O=C(Cl)c1ccc(Cl)cc1Cl`, the melting point was in the range of 16.5 to 18 °C. As for `Cc1cc(N)ccc1Cl`, the figure is 83.5 to 84 °C; as for `N#CC(Br)(Br)C(N)=O`, 124 °C. As for `O=C(O)CSc1ccccc1`, the melting point was 64 to 65 °C. Compound `COc1ccccc1` showed a melting point of -37.5 to -37 °C.

The compound `Cc1c(N)cccc1[N+](=O)[O-]` yielded a melting point of 90 to 92 °C.

For the compound `Cc1ccc2cc3c(ccc4ccccc43)c3c2c1CC3`, the melting point was 180 °C.

Take `COc1cc(C)ccc1O`: the melting point is 5.5 to 6 °C. In the case of `CN(C)c1cccc2c(S(=O)(=O)Cl)cccc12`, the melting point was in the range of 70 to 72 °C. Take `O=[N+]([O-])c1ccc(Br)cc1`: the melting point is 126 to 127 °C.

Consider `COc1cc(C(=O)O)ccc1O`, for which the melting point was in the range of 212 to 214 °C. Then `Cc1ccc(C)c(Br)c1`, with 9 to 10 °C; and `COc1ccc(-c2ccccc2)cc1`, with 88 to 91 °C; and `O=[N+]([O-])c1ccc(CO)cc1`, with 94 to 96.5 °C.
